PubChem BioAssay (NCI)
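A five-concentration, 48-hour dose response in 96-well plates underlies each endpoint, interpolated linearly between surrounding concentrations. At the TGI there is no net growth.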

Tests used:
Assay in all cases: NCI anticancer screen, dose series, 48 h
COLO 205 colon = test system: COLO 205 colon
UACC-62 melanoma = test system: UACC-62 melanoma
SNB-75 CNS = test system: SNB-75 CNS
SK-OV-3 ovarian = test system: SK-OV-3 ovarian
MDA-N = test system: MDA-N
OVCAR-5 ovarian = test system: OVCAR-5 ovarian
M14 melanoma = test system: M14 melanoma
NCI-H23 lung = test system: NCI-H23 lung
SW-620 colon = test system: SW-620 colon
HT29 colon = test system: HT29 colon
DU-145 prostate = test system: DU-145 prostate
OVCAR-4 ovarian = test system: OVCAR-4 ovarian
SF-268 CNS = test system: SF-268 CNS
OVCAR-8 ovarian = test system: OVCAR-8 ovarian
EKVX NSCLC = test system: EKVX NSCLC
ACHN renal = test system: ACHN renal
CAKI-1 renal = test system: CAKI-1 renal
MDA-MB-435 = test system: MDA-MB-435
A498 renal = test system: A498 renal
UO-31 renal = test system: UO-31 renal
BT-549 breast = test system: BT-549 breast
HCT-15 colon = test system: HCT-15 colon
UACC-257 melanoma = test system: UACC-257 melanoma
SR leukemia = test system: SR leukemia
PC-3 prostate = test system: PC-3 prostate
KM12 colon = test system: KM12 colon
SN12C renal = test system: SN12C renal
CCRF-CEM leukemia = test system: CCRF-CEM leukemia
HOP-62 NSCLC = test system: HOP-62 NSCLC
RXF 393 renal = test system: RXF 393 renal
HCT-116 colon = test system: HCT-116 colon
A549 NSCLC = test system: A549 NSCLC
SF-539 CNS = test system: SF-539 CNS
MCF7 breast = test system: MCF7 breast
HCC-2998 colon = test system: HCC-2998 colon
LOX IMVI melanoma = test system: LOX IMVI melanoma
NCI/ADR-RES ovarian = test system: NCI/ADR-RES ovarian
TK-10 renal = test system: TK-10 renal
SNB-19 CNS = test system: SNB-19 CNS
MDA-MB-231 breast = test system: MDA-MB-231 breast
RPMI-8226 leukemia = test system: RPMI-8226 leukemia
MOLT-4 leukemia = test system: MOLT-4 leukemia
K-562 leukemia = test system: K-562 leukemia
NCI-H226 lung = test system: NCI-H226 lung
SK-MEL-2 melanoma = test system: SK-MEL-2 melanoma
IGROV1 ovarian = test system: IGROV1 ovarian
SK-MEL-28 melanoma = test system: SK-MEL-28 melanoma
HOP-92 NSCLC = test system: HOP-92 NSCLC
SF-295 CNS = test system: SF-295 CNS
OVCAR-3 ovarian = test system: OVCAR-3 ovarian
U251 CNS = test system: U251 CNS
T-47D breast = test system: T-47D breast
NCI-H522 lung = test system: NCI-H522 lung
NCI-H460 lung = test system: NCI-H460 lung
786-0 renal = test system: 786-0 renal
SK-MEL-5 melanoma = test system: SK-MEL-5 melanoma
HS 578T breast = test system: HS 578T breast

CN(C)C(=O)Oc1ccc(-c2cn3cc(NC(=O)c4ccccc4)ccc3n2)cc1
TGI (COLO 205 colon): 32 µM | TGI (UACC-62 melanoma): > 100 µM | TGI (SNB-75 CNS): > 100 µM | TGI (SK-OV-3 ovarian): > 100 µM | TGI (MDA-N): > 100 µM | TGI (OVCAR-5 ovarian): > 100 µM | TGI (M14 melanoma): > 100 µM | TGI (NCI-H23 lung): > 100 µM | TGI (SW-620 colon): > 100 µM | TGI (HT29 colon): > 100 µM | TGI (DU-145 prostate): > 100 µM | TGI (OVCAR-4 ovarian): > 100 µM | TGI (SF-268 CNS): > 100 µM | TGI (OVCAR-8 ovarian): > 100 µM | TGI (EKVX NSCLC): > 100 µM | TGI (ACHN renal): > 100 µM | TGI (CAKI-1 renal): > 100 µM | TGI (MDA-MB-435): > 100 µM | TGI (A498 renal): > 100 µM | TGI (UO-31 renal): > 100 µM | TGI (BT-549 breast): > 100 µM | TGI (HCT-15 colon): > 100 µM | TGI (UACC-257 melanoma): > 100 µM | TGI (SR leukemia): > 100 µM | TGI (PC-3 prostate): > 100 µM | TGI (KM12 colon): > 100 µM | TGI (SN12C renal): > 100 µM | TGI (CCRF-CEM leukemia): > 100 µM | TGI (HOP-62 NSCLC): > 100 µM | TGI (RXF 393 renal): > 100 µM | TGI (HCT-116 colon): > 100 µM | TGI (A549 NSCLC): > 100 µM | TGI (SF-539 CNS): > 100 µM | TGI (MCF7 breast): > 100 µM | TGI (HCC-2998 colon): > 100 µM | TGI (LOX IMVI melanoma): > 100 µM | TGI (NCI/ADR-RES ovarian): > 100 µM | TGI (TK-10 renal): > 100 µM | TGI (SNB-19 CNS): > 100 µM | TGI (MDA-MB-231 breast): > 100 µM | TGI (RPMI-8226 leukemia): > 100 µM | TGI (MOLT-4 leukemia): > 100 µM | TGI (K-562 leukemia): > 100 µM | TGI (NCI-H226 lung): > 100 µM | TGI (SK-MEL-2 melanoma): > 100 µM | TGI (IGROV1 ovarian): > 100 µM | TGI (SK-MEL-28 melanoma): > 100 µM | TGI (HOP-92 NSCLC): > 100 µM | TGI (SF-295 CNS): > 100 µM | TGI (OVCAR-3 ovarian): > 100 µM | TGI (U251 CNS): > 100 µM | TGI (T-47D breast): > 100 µM | TGI (NCI-H522 lung): > 100 µM | TGI (NCI-H460 lung): > 100 µM | TGI (786-0 renal): > 100 µM | TGI (SK-MEL-5 melanoma): 74.1 µM

Nc1nc(Cl)c2nnn(CC3CCC(CO)C3)c2n1 (centres undefined)
TGI (COLO 205 colon): > 100 µM | TGI (UACC-62 melanoma): > 100 µM | TGI (SNB-75 CNS): > 100 µM | TGI (SK-OV-3 ovarian): > 100 µM | TGI (MDA-N): > 100 µM | TGI (OVCAR-5 ovarian): > 100 µM | TGI (M14 melanoma): > 100 µM | TGI (SW-620 colon): > 100 µM | TGI (DU-145 prostate): > 100 µM | TGI (OVCAR-4 ovarian): > 100 µM | TGI (HS 578T breast): > 100 µM | TGI (SF-268 CNS): > 100 µM | TGI (EKVX NSCLC): > 100 µM | TGI (ACHN renal): > 100 µM | TGI (CAKI-1 renal): > 100 µM | TGI (MDA-MB-435): > 100 µM | TGI (A498 renal): > 100 µM | TGI (UO-31 renal): > 100 µM | TGI (HCT-15 colon): > 100 µM | TGI (UACC-257 melanoma): > 100 µM | TGI (PC-3 prostate): > 100 µM | TGI (KM12 colon): > 100 µM | TGI (SN12C renal): > 100 µM | TGI (CCRF-CEM leukemia): > 100 µM | TGI (HOP-62 NSCLC): > 100 µM | TGI (RXF 393 renal): > 100 µM | TGI (HCT-116 colon): > 100 µM | TGI (A549 NSCLC): > 100 µM | TGI (SF-539 CNS): > 100 µM | TGI (MCF7 breast): > 100 µM | TGI (HCC-2998 colon): > 100 µM | TGI (LOX IMVI melanoma): > 100 µM | TGI (NCI/ADR-RES ovarian): > 100 µM | TGI (TK-10 renal): > 100 µM | TGI (SNB-19 CNS): > 100 µM | TGI (MDA-MB-231 breast): > 100 µM | TGI (RPMI-8226 leukemia): > 100 µM | TGI (K-562 leukemia): > 100 µM | TGI (NCI-H226 lung): > 100 µM | TGI (SK-MEL-2 melanoma): > 100 µM | TGI (SK-MEL-28 melanoma): > 100 µM | TGI (HOP-92 NSCLC): > 100 µM | TGI (SF-295 CNS): > 100 µM | TGI (OVCAR-3 ovarian): > 100 µM | TGI (U251 CNS): > 100 µM | TGI (T-47D breast): > 100 µM | TGI (786-0 renal): > 100 µM | TGI (SK-MEL-5 melanoma): > 100 µM
